The source of these data is patent US20090209527A1, “Methods for Using Rapamycin Analogues in the Treatment of Neurological Disorders” (Wyeth, priority 2008, published 2009).

For orientation: EC50 means the concentration at which the effect is half-maximal.

Read-outs that look alike come from different tables or passages of the source.

The test system of test [1] is Mesencephalic dopaminergic neuron cultures. Nature of the test: Dopaminergic uptake assay (3H-dopamine uptake after MPP+ exposure). Type of test: cell-based, rat. To be noted: read-out: EC50 in dopaminergic uptake assays. On the procedure:
Mesencephalic dopaminergic neuron cultures were prepared as described in Pong et al., J. Neurochem. 69: 986-994, 1997, which is incorporated herein by reference in its entirety. Embryonic day 15 (E15) rat fetuses were collected and dissected in ice-cold phosphate-buffered saline (PBS). The ventral piece of tissue compromising the mesencephalic dopaminergic region was dissected out. Dissected pieces of tissue were pooled together and transferred to an enzymatic dissociation medium containing 20 IU/mL papain in Earle's balanced salt solution (Worthington Biochemical, Freehold, N.J., USA) and incubated for 60 minutes at 37° C. After enzymatic dissociation, the papain solution was aspirated and the tissue mechanically triturated with a fire-polished glass Pasteur pipette in complete medium (equal volumes of minimum essential medium (MEM) and F-12 nutrient mixture (GibcoBRL) supplemented with 0.1 mg/mL apotransferrin and 2.5 μg/mL insulin) containing 2,000 IU/mL DNase and 10 mg/mL ovomucoid protease inhibitor.
For dopamine uptake experiments, single-cell suspensions in complete media were seeded on poly-L-ornithine and laminin coated 24-well plates. The cultures were maintained for seven days prior to experimentation. […]
After 48 hours growth of mesencephalic dopaminergic neuron cultures following MPP+ exposure, high-affinity 3H-dopamine uptake was performed using a modified method described by Prochiantz et al., Nature 293: 570-572, 1981, which is incorporated herein by reference. Cultures were washed with pre-warmed PBS containing 5.6 mM glucose and 1 mM ascorbic acid. Cultures were then incubated for 15 minutes at 37° C. with 50 nM 3H-dopamine (31 Ci/mmol, DuPont-NEN, Wilmington, Del., USA). The cultures were washed twice with buffer and lysed with 0.5N NaOH. The lysate was transferred to a scintillation vial containing Ultima Gold scintillation cocktail and radioactivity was determined with a liquid scintillation counter. Alternatively, culture lysates can be washed twice with buffer, incubated for 2 hours at room temperature with Optiphase Supermix scintillation cocktail (Wallac Scintillation Products, Gaithersburg, Md., USA), and radioactivity measured with a liquid scintillation counter.

Another test deals with cortical neuron cultures. Briefly: Cortical neuron assay (neurite outgrowth in dissociated cortical neuron cultures). The class given is cell-based, rat. Conditions: Rattus norvegicus, Cortical neurone; 72 hours treatment, neurite outgrowth; read-out: EC50 in cortical neuron assays. On the procedure:
Dissociated cortical neuron cultures were prepared as previously described (Liu et al., Screening of Immunophilin Ligands by Quantitative Analysis of Neurofilament Expression and Neurite Outgrowth in Cultured Neurons and Cells, J. Neurosci. Methods, 2007 Jul. 30; 163(2):310-20).
Briefly, embryonic day 15 rat fetuses were collected and dissected in ice-cold PBS. Dissected cortices were pooled together and transferred to an enzymatic dissociation medium containing papain. After 30 minutes, the tissue was mechanically triturated with a fire-polished glass Pasteur pipette. Single-cell suspensions in complete media were seeded on poly-L-ornithine and laminin coated 96-well plates. After 24 hours, cultures were treated with various concentrations of compound for 72 hours. The cultures were then fixed and stained with an anti-tubulin primary antibody (TUJ-1) and a fluorescent-tagged secondary antibody. Neurite outgrowth was determined by using the Enhanced Neurite Outgrowth (ENO) algorithm with the Cellomics ArrayScan and expressed as average neurite length or total neurite length per cell.

The test system of test [2] is Spinal cord neuron cultures. Nature of the test: Spinal cord neuron assay. Type of test: cell-based. To be noted: Rattus norvegicus, 72 hours treatment, read-out: EC50 in spinal cord neuron assays. How it is done:
Spinal cord neuron cultures were prepared from embryonic day 15 (E15) rat embryos (Liu et al., Screening of Immunophilin Ligands by Quantitative Analysis of Neurofilament Expression and Neurite Outgrowth in Cultured Neurons and Cells, J. Neurosci. Methods, 2007 Jul. 30; 163(2):310-20). The embryos were collected and their spinal cords were removed in ice-cold phosphate-buffered saline (PBS) without Ca^2+ and Mg^2+. Dissected pieces of spinal cord tissue were pooled together and transferred to an enzymatic dissociation media containing 20 IU/mL papain in Earle's balanced salt solution (Worthington Biochemical, Freehold, N.J.) and incubated for 30 minutes at 37° C. After enzymatic dissociation, the papain solution was aspirated and the tissue mechanically triturated with a fire-polished Pasteur pipette in complete media [Neurobasal Medium with B-27 supplement (Gibco, Grand Island, N.Y.), 100 IU/mL penicillin, 100 µg/mL streptomycin, […] aphidicolin, 0.5 mM glutamate] containing 2,000 IU/mL DNase and 10 mg/mL ovomucoid protease inhibitor. Single-cell suspensions in complete media were plated on pre-coated poly-L-ornithine/laminin 96-well plates (Becton-Dickinson, Bedford, Mass.) at a density of 1.0×10^4 cells/well. Spinal cord neurons were maintained for 24 hours then exposed to vehicle or various concentrations of compound for 72 hours.

Take Rapamycin phenyltriazolinedione: the EC50 in test [1] was < 1000 nM.
For `CO[C@H]1C[C@@H]2CC[C@@H](C)[C@@](O)(O2)C(=O)C(=O)N2CCCC[C@H]2C(=O)O[C@H]([C@H](C)C[C@@H]2CC[C@@H](O)[C@H](OC)C2)CC(=O)[C@H](C)/C=C(\C)[C@@H](O)[C@@H](OC)C(=O)[C@H](C)C[C@H](C)C2C=CC(/C=C/1C)ON2c1c(Cl)cccc1Cl` [Example 3], the EC50 (in the test with cortical neuron cultures; in test [2]) was < 1000 nM throughout.
For `CO[C@H]1C[C@@H]2CC[C@@H](C)[C@@](O)(O2)C(=O)C(=O)N2CCCC[C@H]2C(=O)O[C@H]([C@H](C)C[C@@H]2CC[C@@H](O)[C@H](OC)C2)CC(=O)[C@H](C)/C=C(\C)[C@@H](O)[C@@H](OC)C(=O)[C@H](C)C[C@H](C)/C=C/C=C/C=C/1C` [rapamycin], the concentration for a half-maximal effect (EC50) in the test on cortical neuron cultures is > 1000 nM; in test [1] (Rattus norvegicus, Neuron), > 1000 nM.
`CO[C@H]1C[C@@H]2CC[C@@H](C)[C@@](O)(O2)C(=O)C(=O)N2CCCC[C@H]2C(=O)O[C@H]([C@H](C)C[C@@H]2CC[C@@H](OC(=O)C(C)(C)Cc3ccccn3)[C@H](OC)C2)CC(=O)[C@H](C)/C=C(\C)[C@@H](O)[C@@H](OC)C(=O)[C@H](C)C[C@H](C)C2C=CC(/C=C/1C)ON2c1ccccc1` [Example 6, 9,27-dihydroxy-3-{-2-[4-hydroxy-3-methoxycyclohexyl]-1-methylethyl}-10,21-dimethoxy-6,8,12,14,20,26-hexamethyl-37-phenyl-4,9,10,12,13,14,15,18,21,22,23,24,25,26,27,32,33,34,34a-nonadecahydro-3H-23,27-epoxy-18,15-(epoxyimino) pyrido[2,1-c][1,4]oxazacyclohentriacontine-1,5,11,28,29(6H,31H)-pentone ester with-2,2-dimethyl-3′-(pyridin-2-yl)-propionic acid]: the EC50 was < 1000 nM in test [1] (Rattus norvegicus, Neuron) and < 1000 nM in test [2].
As to `CO[C@H]1C[C@@H]2CC[C@@H](C)[C@@](O)(O2)C(=O)C(=O)N2CCCC[C@H]2C(=O)O[C@H]([C@H](C)C[C@@H]2CC[C@@H](O)[C@H](OC)C2)CC(=O)[C@H](C)/C=C(\C)[C@@H](O)[C@@H](OC)C(=O)[C@H](C)C[C@H](C)[C@@H]2C=C[C@H](/C=C/1C)ON2c1ccccc1` [Example 1, 9,27-dihydroxy-3-{2-[4-hydroxy-3-methoxycyclohexyl]-1-methylethyl}-10,21-dimethoxy-6,8,12,14,20,26-hexamethyl-37-phenyl-4,9,10,12,13,14,15,18,21,22,23,24,25,26,27,32,33,34,34a-nonadecahydro-3H-23,27-epoxy-18,15-(epoxyimino)pyrido[2,1-c][1,4]oxazacyclohentriacontine-1,5,11,28,29(6H,31H)-pentone], the EC50 in the test with cortical neuron cultures was < 1000 nM; in test [1] (Rattus norvegicus, Neuron), < 1000 nM; in test [2] it was < 1000 nM.
With `CO[C@H]1C[C@@H]2CC[C@@H](C)[C@@](O)(O2)C(=O)C(=O)N2CCCC[C@H]2C(=O)O[C@H]([C@H](C)C[C@@H]2CC[C@@H](OC(=O)C(C)(CO)CO)[C@H](OC)C2)CC(=O)[C@H](C)/C=C(\C)[C@@H](O)[C@@H](OC)C(=O)[C@H](C)C[C@H](C)/C=C/C=C/C=C/1C` [CCI-779, reference compound], the EC50 is > 1000 nM in the test on cortical neuron cultures and > 1000 nM in test [1] (Rattus norvegicus, Neuron).
